In the supplement of paper PMC10307832:

Assays:
Test in all cases: relative viability (nuclei count vs DMSO), 5 days (fraction); higher = more cells survive
BEN = system: BEN
In short: (§1)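 Relative viability equals treated-well nuclei counts divided by vehicle-well nuclei counts. Counts came from 4× images of lung cancer cell lines grown in 1536-well plates for 5 days after pin-tool dosing on the day after seeding. Dosing used one drug alone or a fixed anchor-drug dose plus five library-drug doses (not always all listed) in √10 steps, and values are medians of duplicate plates.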

ChaGo-K-1 = system: ChaGo-K-1
In short: as §1

HCC-78 = system: HCC-78
In short: as §1

LC-2-ad = system: LC-2-ad
In short: as §1

LCLC-97TM1 = system: LCLC-97TM1
In short: as §1

LK-2 = system: LK-2
In short: as §1

LU99A = system: LU99A
In short: as §1

LXF-289 = system: LXF-289
In short: as §1

NCI-H1355 = system: NCI-H1355
In short: as §1

NCI-H1651 = system: NCI-H1651
In short: as §1

NCI-H1666 = system: NCI-H1666
In short: as §1

NCI-H1944 = system: NCI-H1944
In short: as §1

NCI-H1975 = system: NCI-H1975
In short: as §1

NCI-H2087 = system: NCI-H2087
In short: as §1

NCI-H2342 = system: NCI-H2342
In short: as §1

NCI-H358 = system: NCI-H358
In short: as §1

NCI-H596 = system: NCI-H596
In short: as §1

NCI-H650 = system: NCI-H650
In short: as §1

NCI-H661 = system: NCI-H661
In short: as §1

NCI-H838 = system: NCI-H838
In short: as §1

PC-3 [JPC-3] = system: PC-3 [JPC-3]
In short: as §1

SK-MES-1 = system: SK-MES-1
In short: as §1

With `COc1nc(C)cnc1NS(=O)(=O)c1cccnc1-c1ccc(-c2nnco2)cc1` [Zibotentan] + Nc1ncn([C@H]2C[C@H](O)[C@@H](CO)O2)c(=O)n1 [Decitabine] (partner 2 µM) as the compound, how does the relative viability (BEN; first compound 0.08 µM) read?
The relative viability was 0.784.

What about the relative viability (BEN; first compound 0.253 µM) of the same compound?
Its relative viability is 0.691.

What about the relative viability (BEN; first compound 0.8 µM) of the same compound?
Its relative viability is 0.734.

And the relative viability (BEN; first compound 2.53 µM)?
The relative viability was 0.646.

What about the relative viability (ChaGo-K-1; first compound 0.08 µM) of the same compound?
Its relative viability is 0.512.

And the relative viability (ChaGo-K-1; first compound 0.253 µM)?
Its relative viability is 0.493.

And the relative viability (ChaGo-K-1; first compound 0.8 µM)?
The relative viability was 0.508.

And the relative viability (ChaGo-K-1; first compound 2.53 µM)?
Its relative viability is 0.55.

What about the relative viability (HCC-78; first compound 0.08 µM) of the same compound?
Its relative viability is 0.795.

And the relative viability (HCC-78; first compound 0.253 µM)?
The relative viability was 0.564.

What about the relative viability (HCC-78; first compound 0.8 µM) of the same compound?
Its relative viability is 0.68.

And the relative viability (HCC-78; first compound 2.53 µM)?
The relative viability was 0.656.

And the relative viability (LC-2-ad; first compound 0.08 µM)?
Its relative viability is 0.66.

What about the relative viability (LC-2-ad; first compound 0.253 µM) of the same compound?
The relative viability was 0.816.

What about the relative viability (LC-2-ad; first compound 0.8 µM) of the same compound?
Its relative viability is 0.718.

What about the relative viability (LC-2-ad; first compound 2.53 µM) of the same compound?
Its relative viability is 0.781.

And the relative viability (LCLC-97TM1; first compound 0.08 µM)?
The relative viability was 0.26.

What about the relative viability (LCLC-97TM1; first compound 0.253 µM) of the same compound?
The relative viability was 0.266.

What about the relative viability (LCLC-97TM1; first compound 0.8 µM) of the same compound?
The relative viability was 0.229.

And the relative viability (LCLC-97TM1; first compound 2.53 µM)?
The relative viability was 0.246.

What about the relative viability (LK-2; first compound 0.08 µM) of the same compound?
Its relative viability is 0.387.

What about the relative viability (LK-2; first compound 0.253 µM) of the same compound?
The relative viability was 0.289.

What about the relative viability (LK-2; first compound 0.8 µM) of the same compound?
The relative viability was 0.317.

What about the relative viability (LK-2; first compound 2.53 µM) of the same compound?
The relative viability was 0.213.

And the relative viability (LU99A; first compound 0.08 µM)?
Its relative viability is 0.933.

What about the relative viability (LU99A; first compound 0.253 µM) of the same compound?
The relative viability was 0.848.

What about the relative viability (LU99A; first compound 0.8 µM) of the same compound?
Its relative viability is 0.95.

What about the relative viability (LU99A; first compound 2.53 µM) of the same compound?
The relative viability was 1.06.

And the relative viability (LXF-289; first compound 0.08 µM)?
The relative viability was 0.357.

And the relative viability (LXF-289; first compound 0.253 µM)?
The relative viability was 0.346.

And the relative viability (LXF-289; first compound 0.8 µM)?
The relative viability was 0.409.

And the relative viability (LXF-289; first compound 2.53 µM)?
The relative viability was 0.367.

And the relative viability (NCI-H1355; first compound 0.08 µM)?
Its relative viability is 0.346.

What about the relative viability (NCI-H1355; first compound 0.253 µM) of the same compound?
Its relative viability is 0.337.

And the relative viability (NCI-H1355; first compound 0.8 µM)?
Its relative viability is 0.368.

What about the relative viability (NCI-H1355; first compound 2.53 µM) of the same compound?
The relative viability was 0.35.

And the relative viability (NCI-H1651; first compound 0.08 µM)?
The relative viability was 0.657.

What about the relative viability (NCI-H1651; first compound 0.253 µM) of the same compound?
The relative viability was 0.607.

And the relative viability (NCI-H1651; first compound 0.8 µM)?
The relative viability was 0.567.

What about the relative viability (NCI-H1651; first compound 2.53 µM) of the same compound?
Its relative viability is 0.516.

And the relative viability (NCI-H1666; first compound 0.08 µM)?
Its relative viability is 0.71.

What about the relative viability (NCI-H1666; first compound 0.253 µM) of the same compound?
Its relative viability is 0.685.

What about the relative viability (NCI-H1666; first compound 0.8 µM) of the same compound?
The relative viability was 0.745.

What about the relative viability (NCI-H1666; first compound 2.53 µM) of the same compound?
Its relative viability is 0.56.

And the relative viability (NCI-H1944; first compound 0.08 µM)?
Its relative viability is 0.433.

What about the relative viability (NCI-H1944; first compound 0.253 µM) of the same compound?
The relative viability was 0.431.

What about the relative viability (NCI-H1944; first compound 0.8 µM) of the same compound?
The relative viability was 0.425.

And the relative viability (NCI-H1944; first compound 2.53 µM)?
The relative viability was 0.426.

And the relative viability (NCI-H1975; first compound 0.08 µM)?
The relative viability was 0.565.

And the relative viability (NCI-H1975; first compound 0.253 µM)?
The relative viability was 0.384.

And the relative viability (NCI-H1975; first compound 0.8 µM)?
The relative viability was 0.403.

And the relative viability (NCI-H1975; first compound 2.53 µM)?
Its relative viability is 0.377.

And the relative viability (NCI-H2087; first compound 0.08 µM)?
The relative viability was 0.342.

And the relative viability (NCI-H2087; first compound 0.253 µM)?
The relative viability was 0.287.

And the relative viability (NCI-H2087; first compound 0.8 µM)?
Its relative viability is 0.325.

What about the relative viability (NCI-H2087; first compound 2.53 µM) of the same compound?
Its relative viability is 0.331.

And the relative viability (NCI-H2342; first compound 0.08 µM)?
Its relative viability is 0.659.

And the relative viability (NCI-H2342; first compound 0.253 µM)?
The relative viability was 0.776.

And the relative viability (NCI-H2342; first compound 0.8 µM)?
The relative viability was 0.707.

What about the relative viability (NCI-H2342; first compound 2.53 µM) of the same compound?
Its relative viability is 0.71.

And the relative viability (NCI-H358; first compound 0.08 µM)?
The relative viability was 0.196.

And the relative viability (NCI-H358; first compound 0.253 µM)?
Its relative viability is 0.139.

What about the relative viability (NCI-H358; first compound 2.53 µM) of the same compound?
Its relative viability is 0.222.

And the relative viability (NCI-H596; first compound 0.08 µM)?
The relative viability was 0.992.

And the relative viability (NCI-H596; first compound 0.253 µM)?
Its relative viability is 0.911.

What about the relative viability (NCI-H596; first compound 0.8 µM) of the same compound?
The relative viability was 1.06.

And the relative viability (NCI-H596; first compound 2.53 µM)?
Its relative viability is 1.04.

What about the relative viability (NCI-H650; first compound 0.08 µM) of the same compound?
The relative viability was 0.298.

What about the relative viability (NCI-H650; first compound 0.253 µM) of the same compound?
The relative viability was 0.297.

What about the relative viability (NCI-H650; first compound 0.8 µM) of the same compound?
Its relative viability is 0.352.

And the relative viability (NCI-H650; first compound 2.53 µM)?
Its relative viability is 0.311.

What about the relative viability (NCI-H661; first compound 0.08 µM) of the same compound?
Its relative viability is 0.557.

And the relative viability (NCI-H661; first compound 0.253 µM)?
The relative viability was 0.529.

What about the relative viability (NCI-H661; first compound 0.8 µM) of the same compound?
Its relative viability is 0.57.

And the relative viability (NCI-H661; first compound 2.53 µM)?
The relative viability was 0.552.

And the relative viability (NCI-H838; first compound 0.08 µM)?
Its relative viability is 0.455.

And the relative viability (NCI-H838; first compound 0.253 µM)?
The relative viability was 0.414.

And the relative viability (NCI-H838; first compound 0.8 µM)?
Its relative viability is 0.545.

And the relative viability (NCI-H838; first compound 2.53 µM)?
The relative viability was 0.461.

And the relative viability (PC-3 [JPC-3]; first compound 0.08 µM)?
Its relative viability is 0.836.

What about the relative viability (PC-3 [JPC-3]; first compound 0.253 µM) of the same compound?
Its relative viability is 0.777.

And the relative viability (PC-3 [JPC-3]; first compound 0.8 µM)?
Its relative viability is 0.85.

And the relative viability (PC-3 [JPC-3]; first compound 2.53 µM)?
Its relative viability is 0.851.

What about the relative viability (SK-MES-1; first compound 0.08 µM) of the same compound?
Its relative viability is 0.389.

What about the relative viability (SK-MES-1; first compound 0.253 µM) of the same compound?
The relative viability was 0.285.

And the relative viability (SK-MES-1; first compound 0.8 µM)?
The relative viability was 0.447.

And the relative viability (SK-MES-1; first compound 2.53 µM)?
The relative viability was 0.365.
